According to US7276527B2, “5-pyridyl-1,3-azole compounds, process for producing the same and use thereof” (Takeda Pharmaceutical Company Limited, priority 1999, dated 2007):

**Q.** With `CC(=O)Nc1nc(-c2cc(C)cc(C)c2)c(-c2ccnc(NCc3ccccc3)c2)s1` [Example Compound 10, N-[5-(2-benzylamino-4-pyridyl)-4-(3,5-dimethylphenyl)-1,3-thiazol-2-yl]acetamide] as the molecule, how does the melting point read?
**A.** The melting point was 217 to 219 °C.

**Q.** Which melting point does the source give for `CNc1nc(-c2ccc(OC)cc2)c(-c2ccnc(NC(=O)c3ccccc3)c2)s1` [Example Compound 11, N-[4-[4-(4-methoxyphenyl)-2-methylamino-1,3-thiazol-5-yl]-2-pyridyl]benzamide] here?
**A.** Its melting point is 237 to 241 °C.

**Q.** Which melting point does the source give for `Cc1cccc(-c2nc(N)sc2-c2ccnc(NC(=O)c3ccccc3)c2)c1` [Example Compound 12, N-[4-[2-amino-4-(3-methylphenyl)-1,3-thiazol-5-yl]-2-pyridyl]benzamide] here?
**A.** Its melting point is 216 to 217 °C.

**Q.** Which melting point does the source give for `COc1ccc(-c2nc(C)sc2-c2ccnc(NC(=O)Cc3ccccc3)c2)cc1` [Example Compound 15-1, N-[4-[4-(4-methoxyphenyl)-2-methyl-1,3-thiazol-5-yl]-2-pyridyl]phenylacetamide] here?
**A.** The melting point was 118 to 120 °C.

**Q.** With `CCCCc1nc(-c2cccc(C)c2)c(-c2ccnc(NC(=O)Cc3ccccc3)c2)s1` [Example Compound 15-4, N-[4-[2-butyl-4-(3-methylphenyl)-1,3-thiazol-5-yl]-2-pyridyl]phenylacetamide] as the molecule, how does the melting point read?
**A.** Its melting point is 92 to 93 °C.

**Q.** With `Cc1cccc(-c2nc(-c3ccccc3Cl)sc2-c2ccnc(NC(=O)Cc3ccccc3)c2)c1` [Example Compound 15-5, N-(4-[2-(2-chlorophenyl)-4-(3-methylphenyl)-1,3-thiazol-5-yl]-2-pyridyl]phenylacetamide] as the molecule, how does the melting point read?
**A.** The melting point was 141 to 142 °C.

**Q.** For `CSc1ccc(-c2nc(-c3cccc(C)c3)c(-c3ccnc(NC(=O)Cc4ccccc4)c3)s2)cc1` [Example Compound 15-6, N-[4-[4-(3-methylphenyl)-2-(4-methylthiophenyl)-1,3-thiazol-5-yl]-2-pyridyl]phenylacetamide], which melting point is on record?
**A.** The melting point was 205 to 206 °C.

**Q.** Which melting point does the source give for `CCc1nc(-c2cccc(C)c2)c(-c2ccnc(NC(=O)CCc3ccc(OC)cc3)c2)s1` [Example Compound 16-3, N-[4-[2-ethyl-4-(3-methylphenyl)-1,3-thiazol-5-yl]-2-pyridyl]-3-(4-methoxyphenyl)propionamide] here?
**A.** Its melting point is 137 to 138 °C.

**Q.** Which melting point does the source give for `CCc1nc(-c2cccc(C)c2)c(-c2ccnc(NC(=O)CCc3ccc(F)cc3)c2)s1` [Example Compound 16-4, N-[4-[2-ethyl-4-(3-methylphenyl)-1,3-thiazol-5-yl]-2-pyridyl]-3-(4-fluorophenyl)propionamide] here?
**A.** Its melting point is 116 to 117 °C.

**Q.** Which melting point does the source give for `CCc1nc(-c2cccc(C)c2)c(-c2ccnc(NC(=O)CCCc3ccccc3)c2)s1` [Example Compound 16-5, N-[4-[2-ethyl-4-(3-methylphenyl)-1,3-thiazol-5-yl]-2-pyridyl]-4-phenylbutyramide] here?
**A.** Its melting point is 92 to 93 °C.

**Q.** For `CCc1nc(-c2cccc(C)c2)c(-c2ccnc(NC(=O)CCCCc3ccccc3)c2)s1` [Example Compound 16-6, N-[4-[2-ethyl-4-(3-methylphenyl)-1,3-thiazol-5-yl]-2-pyridyl]-5-phenylvaleramide], which melting point is on record?
**A.** The melting point was 86 to 87 °C.

**Q.** For `CCCc1nc(-c2cccc(C)c2)c(-c2ccnc(NC(=O)CCc3ccccc3)c2)s1` [Example Compound 16-8, N-[4-[4-(3-methylphenyl)-2-propyl-1,3-thiazol-5-yl]-2-pyridyl]-3-phenylpropionamide], which melting point is on record?
**A.** The melting point was 103 to 104 °C.

**Q.** For `CCCCc1nc(-c2cccc(C)c2)c(-c2ccnc(NC(=O)CCc3ccccc3)c2)s1` [Example Compound 16-10, N-[4-[2-butyl-4-(3-methylphenyl)-1,3-thiazol-5-yl]-2-pyridyl]-3-phenylpropionamide], which melting point is on record?
**A.** The melting point was 77 to 78 °C.

**Q.** With `Cc1cccc(-c2nc(-c3ccc(F)cc3)sc2-c2ccnc(NC(=O)c3ccccc3)c2)c1` [Example Compound 16-11, N-[4-[2-(4-fluorophenyl)-4-(3-methylphenyl)-1,3-thiazol-5-yl]-2-pyridyl]benzamide] as the molecule, how does the melting point read?
**A.** Its melting point is 126 to 128 °C.

**Q.** With `Cc1cccc(-c2nc(-c3ccc(F)cc3)sc2-c2ccnc(NC(=O)CCc3ccccc3)c2)c1` [Example Compound 16-12, N-[4-[2-(4-fluorophenyl)-4-(3-methylphenyl)-1,3-thiazol-5-yl]-2-pyridyl]-3-phenylpropionamide] as the molecule, how does the melting point read?
**A.** Its melting point is 169 to 171 °C.

**Q.** With `Cc1cccc(-c2nc(-c3ccccc3Cl)sc2-c2ccnc(NC(=O)c3ccccc3)c2)c1` [Example Compound 16-13, N-(4-[2-(2-chlorophenyl)-4-(3-methylphenyl)-1,3-thiazol-5-yl]-2-pyridyl]benzamide] as the molecule, how does the melting point read?
**A.** Its melting point is 138 to 140 °C.

**Q.** Which melting point does the source give for `Cc1cccc(-c2nc(-c3ccccc3Cl)sc2-c2ccnc(NC(=O)CCc3ccccc3)c2)c1` [Example Compound 16-14, N-[4-[2-(2-chlorophenyl)-4-(3-methylphenyl)-1,3-thiazol-5-yl]-2-pyridyl]-3-phenylpropionamide] here?
**A.** Its melting point is 156 to 158 °C.

**Q.** For `CSc1ccc(-c2nc(-c3cccc(C)c3)c(-c3ccnc(NC(=O)c4ccccc4)c3)s2)cc1` [Example Compound 16-15, N-[4-[4-(3-methylphenyl)-2-(4-methylthiophenyl)-1,3-thiazol-5-yl]-2-pyridyl]benzamide], which melting point is on record?
**A.** Its melting point is 180 to 182 °C.

**Q.** Which melting point does the source give for `CSc1ccc(-c2nc(-c3cccc(C)c3)c(-c3ccnc(NC(=O)CCc4ccccc4)c3)s2)cc1` [Example Compound 16-16, N-[4-[4-(3-methylphenyl)-2-(4-methylthiophenyl)-1,3-thiazol-5-yl]-2-pyridyl]-3-phenylpropionamide] here?
**A.** The melting point was 174 to 175 °C.

**Q.** With `CSc1ccc(-c2nc(-c3cccc(C)c3)c(-c3ccnc(NC(=O)c4cccs4)c3)s2)cc1` [Example Compound 16-17, N-[4-[4-(3-methylphenyl)-2-(4-methylthiophenyl)-1,3-thiazol-5-yl]-2-pyridyl]-2-thiophenecarboxamide] as the molecule, how does the melting point read?
**A.** The melting point was 145 to 147 °C.

**Q.** Which melting point does the source give for `CSc1ccc(-c2nc(-c3cccc(C)c3)c(-c3ccnc(NC(=O)c4ccc5ccccc5c4)c3)s2)cc1` [Example Compound 16-18, N-[4-[4-(3-methylphenyl)-2-(4-methylthiophenyl)-1,3-thiazol-5-yl]-2-pyridyl]-2-naphthamide] here?
**A.** Its melting point is 184 to 186 °C.

**Q.** Which melting point does the source give for `COc1ccc(-c2nc(C)sc2-c2ccnc(NCc3ccccc3)c2)cc1` [Example Compound 19-1, N-benzyl-N-[4-[4-(4-methoxyphenyl)-2-methyl-1,3-thiazol-5-yl]-2-pyridyl]amine] here?
**A.** The melting point was 132 to 133 °C.

**Q.** Which melting point does the source give for `Cc1cccc(-c2nc(-c3ccc(F)cc3)sc2-c2ccnc(NCc3ccccc3)c2)c1` [Example Compound 19-11, N-benzyl-N-[4-[2-(4-fluorophenyl)-4-(3-methylphenyl)-1,3-thiazol-5-yl]-2-pyridyl]amine] here?
**A.** The melting point was 143 to 146 °C.

**Q.** Which melting point does the source give for `Cc1cccc(-c2nc(-c3ccc(F)cc3)sc2-c2ccnc(NCCc3ccccc3)c2)c1` [Example Compound 19-12, N-[4-[2-(4-fluorophenyl)-4-(3-methylphenyl)-1,3-thiazol-5-yl]-2-pyridyl]-N-(2-phenylethyl)amine] here?
**A.** Its melting point is 97 to 98 °C.

**Q.** For `Cc1cccc(-c2nc(-c3ccc(F)cc3)sc2-c2ccnc(NCCCc3ccccc3)c2)c1` [Example Compound 19-13, N-[4-[2-(4-fluorophenyl)-4-(3-methylphenyl)-1,3-thiazol-5-yl]-2-pyridyl]-N-(3-phenylpropyl)amine], which melting point is on record?
**A.** The melting point was 110 to 112 °C.
